According to US6989138B2, “Stabilization of radiopharmaceutical compositions using hydrophilic thioethers and hydrophilic 6-hydroxy chromans” (Diatide, Inc., priority 2000, dated 2006):

Assay: Radiochemical purity (RCP) of 99mTc-depreotide kits with gentisic acid, reversed phase HPLC
Format: physicochemical
Settings: when included in formulated kits
Experimental: Lyophilized kit vials were prepared containing depreotide, GA, and other components as described in Table 1. Formulations were adjusted to pH 7.4 or 8.5 (as noted) prior to lyophilization.

## O=C(O)c1cc(O)ccc1O [gentisic acid, Gentisic acid]
  effect on radiolabelling yield and stability of 99mTc-depreotide: decreases the radiolabelling yield and the stability
